Data on three molecules can be found in publication PMC8238948, “Potent inhibitors of toxic alpha-synuclein identified via cellular time-resolved FRET biosensors” (NPJ Parkinson's Disease, 2021).

Assay [1] concerns SH-SY5Y cells transfected with unlabeled WT αSN. The assay can be described thus: αSN expression levels in SH-SY5Y cells (immunoblot). It is filed as cell-based, human. Particulars: 1 μM compound; relative to DMSO. How it is done: We investigated one potential MOA for compounds RO and DEM in our SH-SY5Y cytotoxicity model. These compounds might rescue αSN-induced cytotoxicity by modulating αSN expression[81],[82]. SH-SY5Y cells transfected with empty-vector or unlabeled WT αSN were treated with DMSO, RO, or DEM at 1 μM concentration. […] This effect may be due to prolonged survival of cells expressing higher levels of αSN, which would be lost in DMSO-treated samples or as a result of shifting monomer:oligomer ratios. Studies have shown that there is a fine balance in αSN expression, where too much can lead to aggregation, but αSN expression can also be neuroprotective[81],[83]–[86].
Supplemental Figure 15. Rescue of αSN-induced cytotoxicity in SH-SY5Y cells is not driven by suppression of αSN expression. One potential MOA for our hit compounds could be reduction of αSN levels, thereby alleviating the αSN induced cytotoxicity. (a) Treatment of SH-SY5Y cells expressing either αSN or […]
DMSO for both RO and DEM. (b) Quantification of a via densitometry analysis.
(§1) (1 picture or pasted object on this page, not shown here)
On the technique in general: In western blotting, separated proteins are transferred to a membrane and probed.

Another assay addresses T1, 3FY-αSN (monomeric αSN) (Homo sapiens, UniProt P37840).
T1 construct: made in house
The assay can be described thus: Protein-observed fluorine NMR (PrOF NMR). The settings on record: for 19F chemical shifts / resonance broadening on titration: 20 μM 3FY-αSN, compound titration. It is filed as binding. How it is done: PrOF NMR provides a perturbation-free method to monitor αSN conformation and structure through the incorporation of F19-labeled 3-fluoro-Tyrosine into recombinant protein[89].
Experiments were run on a Bruker 600-MHz Avance NEO (6001), equipped with a 5 mm triple resonance cryoprobe. 3FY-αSN was diluted in PBS, pH = 7.4 buffer by the addition of D2O and 0.1% trifluoroacetic acid (TFA) to final concentrations of 5 and 0.07%, respectively, in a total NMR sample volume of 150 µL. Two one-dimensional ^19F NMR spectra were taken of the protein sample at an O1P of −75 ppm, NS = 16, D1 = 1 s, and AQ = 0.5 s (TFA reference set to −75.25 ppm) and an O1P of −136 ppm, NS = 3072, D1 = 0.6 s, and AQ = 0.05 s (protein resonances). Ligand stock solutions of 1–10 mM were prepared in DMSO and titrated into the protein solutions (20 μM). As a control experiment, in a separate NMR tube, DMSO was added to a final concentration of 0.5, 0.6, 0.8, 1.5, and 2.5% to control for any solvent-induced chemical shifts. For each concentration, a TFA reference spectrum and a protein 1D-^19F NMR spectrum were acquired.
Supplemental Figure 20. PrOF NMR experiments with hit compounds and fluorinated αSN support a lack of binding to monomeric αSN. (a) 19F NMR spectrum and assignments of 3FY- αSN. The resulting spectrum is consistent with the spectrum of monomeric 3FY- αSN reported by 4. Corresponding assignments are used from that report. Stacked 19F NMR spectra with an increasing concentration of (b) Ro 90-7501 and (c) DEM HCl […]
compound binding to monomeric αSN. An exception is at high concentrations of Ro 90-7501(110 μM) a small degree of chemical shift perturbation is observed.
as §1

The subject of assay [2] is inter-protomeric and intra-protomeric αSN FRET biosensors in HEK293 cells. The assay can be described thus: Pilot HTS of the LOPAC library, fluorescence lifetime (FLT) of cellular αSN FRET biosensors. Particulars: 10 µM compound, 90 min; hit = FLT change >5 SD. It is filed as cell-based, human.
Procedure: Prior to each pilot HTS, FLT and emission spectrum were measured to verify signal level, basal FRET, coefficient of variance (CV), and similarity index. For each HTS, cells were dispensed into compound plates—1536-well (10 µL/well)—and incubated with the compounds (10 µM) or dimethyl sulfoxide (DMSO; 1%) for 90 min. FLT measurements were acquired with the FLT-PR. After deconvolving the instrument response function, a single exponential fit was used to determine the FLT for both the αSN cellular FRET biosensor (τDA) and the donor-only control biosensor (τD). FRET efficiency was determined by Eq. 1. CV was determined from control plates (N = 384 wells).
Fluorescent compounds (FC) were flagged using a spectral similarity index filter, which evaluates the ratio of intensity from two bandwidths that span the donor emission spectrum and are excluded as potential false positives[45],[46],[49],[51],[66]. […] Compounds that changed FLT by >5 standard deviations (SD) were considered hits (Fig. 5, red data points).
On each day of screening, the compound plates were equilibrated to room temperature (RT; 25 °C). The cells were harvested from the 100-mm plates by incubating with TrypLE (Invitrogen) for 2 min, washed three times in PBS by centrifugation at 200 × g, and filtered using 70-μm cell strainers (BD Falcon). Cell viability prior to screen was assessed using a trypan blue assay and confirmed to be >80%. Cells were diluted to 1.5E6 cells/mL. Expression of GFP-αSN and the αSN biosensors were confirmed by fluorescence microscopy prior to each screen (EvosFL-Auto microscope, Thermo Fisher Scientific, USA). During screening, cells (50 μL/well for 384-well; 10 μL/well for 1536-well) were dispensed by a Multidrop Combi liquid dispenser (Thermo, Pittsburg, PA, USA) into the assay plates containing the compounds and allowed to incubate at RT for 90 min before recording with the FLT-PR or SUPR (both instruments manufactured by Fluorescence Innovations Inc., both owned and provided by Photonic Pharma LLC), as described previously[46].
Interfering compounds were flagged as potential false positives by a set of stringent FC filters based on spectral analysis of each well from the LOPAC screen[45],[46]. After removal of FCs, a histogram of the FLT distribution from all compounds in the screen was plotted and fit to a Gaussian curve to obtain the mean (µ) and SD (σ). A hit was defined as a compound that attenuated the FLT efficiency by >5σ relative to the mean µ (Supplementary Fig. 12).
The target in assay [3] is T2, labeled αSN (monomeric) (Homo sapiens, UniProt P37840, S9C/T72C).
T2 construct: made in house; host or cells: Escherichia coli BL21(DE3)
The assay can be described thus: smFRET measurements of αSN monomer conformation. The settings on record: αSN labeled at 9C-72C; +20μM compound; mean ± standard deviation. The method, then:
(§2) SmFRET experiments were performed using two different labeled αSN constructs (residues 9–72 and residues 54–130) that report on intra-monomeric FRET (e.g., monomer conformation) of the N-terminal and C-terminal domains of αSN. […] We were not able to evaluate RO with smFRET, due to interactions of RO with the AlexaFluor-594 label.
(§3) Single-molecule FRET measurements were carried out using ~30 pM of labeled αSN in 20 mM Tris pH 7.4 and 50 mM NaCl in 8-chambered Nunc coverslips (ThermoFisher) passivated with poly(ethylene glycol) poly(L-lysine) to reduce protein adsorption to the chambers. Measurements were made on a MicroTime 200 time-resolved confocal microscope (Picoquant) as described previously. Laser power was adjusted to ~30 μW before sample illumination. Fluorescence emission was collected through the objective and passed through a 150-μm diameter pinhole. Photons were separated by an HQ585LP dichroic in combination with ET525/50M and HQ600LP filters and detected by avalanche photodiodes. Photon traces were collected in 1-ms time bins for 1 h. A cutoff of 25 counts/ms was applied to discriminate between bursts arising from fluorescently labeled protein and background noise. The FRET efficiency (Eeff) was calculated using the SymphoTime 64 software. SmFRET histograms were fit with Gaussian distributions to determine the peak Eeff values. Each measurement was carried out three times and mean Eeff values are the average and SD of these measurements (Supplementary Table 2). Alignment of instrument and analysis were verified using smFRET reference standards consisting of 10, 14, and 18 base pair dsDNA labeled with Alexa 488 and Alex 594 with their 5’ and 3’ ends.

In assay [4] the target is T3, labeled αSN (monomeric) (Homo sapiens, UniProt P37840, E130C/T54C).
T3 construct: made in house; host or cells: Escherichia coli BL21(DE3)
Nature of the assay: smFRET measurements of αSN monomer conformation. Particulars: αSN labeled at 54-130C; +20μM compound; mean ± standard deviation. How it is done:
as §2, §3

Counter-ions that a name gives are not always drawn.

With `Nc1ccc(-c2nc3ccc(-c4nc5ccc(N)cc5[nH]4)cc3[nH]2)cc1` [RO, Ro 90–7501], in assay [1], the “total αSN expression levels” value is recorded as “no change”. Also, the “19F chemical shift perturbation at high concentration” value at 3FY-αSN (monomeric αSN) (20 µM 3FY-αSN, 110 μM compound) is listed as “small degree of chemical shift perturbation”. Also, the “19F chemical shifts / resonance broadening on titration” value at 3FY-αSN (monomeric αSN) is “no significant chemical shifts or resonance broadening”.
Regarding `CN(C)[C@@H]1C(O)=C(C(N)=O)C(=O)[C@@]2(O)C(O)=C3C(=O)c4c(O)ccc(Cl)c4[C@@H](O)[C@H]3C[C@@H]12` [DEM, Demeclocycline HCl], in assay [2], the “identified as hit in the LOPAC screen” value was “identified”. The “total αSN expression levels” value in assay [1] is given as “no change”. Further, on 3FY-αSN (monomeric αSN), the “19F chemical shifts / resonance broadening on titration” value is “no significant chemical shifts or resonance broadening”. For the same molecule, the “Eeff (smFRET efficiency)” value on labeled αSN (monomeric) [3] turned out to be 0.55 ± 0.005; at labeled αSN (monomeric) [4], 0.60 ± 0.008.
Turning to `COC(=O)C1=C(C)NC(C)=C([N+](=O)[O-])C1c1ccccc1C(F)(F)F` (racemic) [BAY, (±)-Bay K 8644], the “Eeff (smFRET efficiency)” value was 0.54 ± 0.013 at labeled αSN (monomeric) [3] and 0.58 ± 0.005 at labeled αSN (monomeric) [4].
